Values quoted from earlier work, collected in patent US10307140B2, “Device for detection of hepatocellar carcinoma (HCC) using an octanoate breath test” (EXALENZ BIOSCIENCE LTD., priority 2011, dated 2019).
Where two headings read alike, the source gives them in different places.

Tested on: liver mitochondria
Conditions: HCC patients

## CC(C)CC(=O)C(=O)O [KICA, ketoisocaproate]
After RFA, P<0.05
  change of ketoisocaproate decarboxylation: −27%
After TACE
  change of ketoisocaproate decarboxylation: unaffected
